In general, IC50 refers to the point on the concentration scale where inhibition reaches its midpoint. In general, inhibition refers to how much of the control response was suppressed.

Data on one compound can be found in patent publication US20170313669A1, “LACTONE COMPOUNDS AND METHODS OF MAKING AND USING SAME” (THE SCRIPPS RESEARCH INSTITUTE, priority 2015, published 2017).

Assay [1] concerns the target T1, mouse ABHD16A (Mus musculus, UniProt Q9Z1Q2).
T1 construct: full-length cDNA of human ABHD16A (Open Biosystems Catalog # MHS6278-202758315) or murine ABHD16A (Open Biosystems Catalog # MMM1013-202760516); host or cells: HEK293T, transient, pCMV-SPORT6
T1 sequence (Q9Z1Q2 1-558): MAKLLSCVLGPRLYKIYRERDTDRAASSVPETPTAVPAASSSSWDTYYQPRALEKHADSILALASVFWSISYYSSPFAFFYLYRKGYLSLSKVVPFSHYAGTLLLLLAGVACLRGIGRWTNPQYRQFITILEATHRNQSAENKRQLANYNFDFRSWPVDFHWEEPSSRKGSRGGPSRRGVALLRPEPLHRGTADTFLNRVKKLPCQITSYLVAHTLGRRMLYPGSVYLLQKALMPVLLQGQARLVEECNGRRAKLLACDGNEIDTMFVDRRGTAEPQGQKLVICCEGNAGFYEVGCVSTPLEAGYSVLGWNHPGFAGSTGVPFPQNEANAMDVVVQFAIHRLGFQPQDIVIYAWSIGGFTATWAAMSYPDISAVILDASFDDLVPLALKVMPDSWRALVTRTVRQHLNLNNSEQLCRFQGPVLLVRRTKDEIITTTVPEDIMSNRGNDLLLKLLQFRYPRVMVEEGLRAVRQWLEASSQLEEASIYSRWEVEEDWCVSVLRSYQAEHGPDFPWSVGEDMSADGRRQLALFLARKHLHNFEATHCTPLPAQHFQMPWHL
Description: PS substrate assay, mouse ABHD16A-transfected HEK293T proteome. Format: biochemical. The note with it: 30 min, 37° C.; C18:0/C18:2 PS 100 μM; read-out: IC50, PS-lipase activity.

The test system of assay [2] is K562 cells. Briefly: PS lipase activity of membrane fraction after in situ treatment. The note with it: 1 μM, 4 h.
In assay [3] the test system is additional off-targets (serine hydrolases). Description: ABPP-SILAC, COLO205 cells treated in situ. It counts as cell-based, human. To be noted: 1 μM, 4 h.
Assay [4] deals with MCF7 cells. Description: PS lipase activity of membrane fraction after in situ treatment. The note with it: 1 μM, 4 h.
The test system of assay [5] is ABHD16A−/− macrophages. Briefly: Lyso-PS and cytokines of ABHD16A−/− macrophages. It counts as cell-based, mouse. The note with it: basal or LPS stimulation; 1 μM, 4 h. The method, then: Concentration of secreted lyso-PS (a) and cytokines IL-6 (b) and TNF-α (c) from thioglycollate-elicited peritoneal mouse macrophages from ABHD16A^−/− mice treated with inhibitor (KC01 or KC02, 1 μM, 4 h) followed by vehicle (PBS) or LPS (5 μg/mL) for 7 h is shown. Data represent mean±s.e.m. for four biological replicates. KC01 and KC02 have no effect on lyso-PS or cytokine secretion. Other secreted and cellular lipids in ABHD16A^−/− macrophages were also unchanged by KC01 or KC02 treatment (data not shown).
Peritoneal macrophages were elicited and harvested from mice according to the standard protocols available from LIPID MAPS (See http://www.lipidmaps.org/protocols/PP0000001400.pdf and http://www.lipidmaps.org/protocols/PP0000001500.pdf). After removal of the RBC lysis buffer, the macrophages were re-suspended in RPMI 1640 with 10% FCS and IX penicillin-streptomycin. Cell counts measured using a Bio-Rad TC10 automated cell counter, and equal numbers of cells (2×10^6) were plated in 10 cm tissue culture dishes. Macrophages were allowed to adhere to the plates for 2 h at 37° C. and 5% CO2. […] Macrophages were then stimulated with lipopolysaccharide (5 μg/mL) for 7 hours. Sterile PBS was the vehicle in these studies. Four milliliters of the media was used for measuring secreted metabolites, and 0.5 mL was used for cytokine measurements.

The target in assay [6] is mouse brain membrane PS lipase activity (Mus musculus, UniProt Q9Z1Q2). It counts as biochemical. To be noted: two-month old ABHD12+/+ and ABHD12−/− mice.
The target in assay [7] is T2, ABHD16A (Homo sapiens, UniProt O95870).
T2 sequence (O95870 1-558): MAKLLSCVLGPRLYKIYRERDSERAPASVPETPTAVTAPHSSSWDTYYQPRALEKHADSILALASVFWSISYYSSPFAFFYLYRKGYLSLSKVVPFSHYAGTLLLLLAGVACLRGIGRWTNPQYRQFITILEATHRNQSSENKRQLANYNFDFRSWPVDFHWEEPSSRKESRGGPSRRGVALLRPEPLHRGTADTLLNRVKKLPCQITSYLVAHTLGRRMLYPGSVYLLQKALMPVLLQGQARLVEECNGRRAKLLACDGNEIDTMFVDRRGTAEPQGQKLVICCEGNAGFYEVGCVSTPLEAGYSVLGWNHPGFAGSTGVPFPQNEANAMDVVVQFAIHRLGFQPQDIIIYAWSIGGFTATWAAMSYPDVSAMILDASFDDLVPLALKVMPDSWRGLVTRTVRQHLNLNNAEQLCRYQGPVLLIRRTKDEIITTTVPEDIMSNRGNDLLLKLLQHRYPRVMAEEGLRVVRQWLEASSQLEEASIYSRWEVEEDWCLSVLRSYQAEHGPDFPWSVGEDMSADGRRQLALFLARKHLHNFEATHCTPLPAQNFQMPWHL
Description: ABPP-SILAC, COLO205 cells treated in situ. Details: All ABPP-SILAC experiments were performed using the human COLO205 colon cancer cell line; endogenous in cells; host or cells: COLO205. Format: cell-based.

A value given as a limit tells only on which side of the number the result lay.

Take `CCCCCCCCCCCCCC1OC(=O)/C1=C\CCCCC(N)=O` (centres unmarked) [KC01, (Z)-6-(2-oxo-4-tridecyloxetan-3-ylidene)hexanamide]: the IC50 in assay [1] was 520 ± 70 nM. Further, the “decrease of PS-lipase activity vs DMSO” value in assay [2] and in assay [4] was over 90% in each case. In assay [3], the inhibition is 50-80%. Further, the “cellular or secreted lyso-PS, other lipids, secreted IL-6 and TNF-α” value in assay [5] is reported as “No changes”. Also, the “PS lipase activity of brain membrane lysates” value in assay [6] was “inhibited the PS lipase activity”. Also, in assay [7] (1 μM, 4 h), the “light:heavy ratio” value is given as 0.02. The same compound yielded an inhibition at 1 µM in assay [7] (COLO 205, 4 h) of 98%.
